# Where “and” joins values, the source holds several entries; their conditions need not be identical. Equal values may be shown once.
# System: patients with Amyotrophic Lateral Sclerosis (ALS)
# Assay: Phase 2 placebo controlled, randomized, double blind 12-week study, ALSFRS-R total score
# Type: in vivo, human
# Description: Efficacy, Safety, Tolerability, Pharmacokinetics and Pharmacodynamics of Formula (I) in Patients with Amyotrophic Lateral Sclerosis • Protocol Title: A phase 2, proof-of-concept, placebo controlled, randomized, double blind study of compound of formula (I) to evaluate the efficacy, safety, tolerability, pharmacokinetics and pharmacodynamics in patients with Amyotrophic Lateral Sclerosis (ALS). • Study design: A phase 2, proof-of-concept, placebo controlled, randomized, double blind, 12-week study of compound of formula (I) to evaluate the efficacy, safety, pharmacokinetics, and pharmacodynamics in patients with Amyotrophic Lateral Sclerosis (ALS). • Study population: Male or female patients aged between 18-80 years (both inclusive at screening) with diagnosis of Amyotrophic Lateral Sclerosis who meet eligibility criteria • Number of Patients: Approximately 24 patients (06 patients in each arm) are enrolled. • Duration of Patient Participation: 114±5 Days (Including 28 days of screening)
# • To measure the efficacy of the treatment using the slope of progression with the revised Amyotrophic Lateral Sclerosis Functional Rating Scale (ALSFRS-R)
# • Change from baseline in the ALSFRS-R total score [Time Frame: From baseline to Week 12] […]
smiles,measurement,setting,value
CN1CCC[C@]1(C)/C=C/S(=O)(=O)NC(=O)Nc1c2c(cc3c1CCC3)CCC2 [formula (I)],Change from baseline in the ALSFRS-R total score,"baseline to Week 12, one line per patient, arm not given",−8 points and −1 points and 4 points and 0 points and 1 points and −3 points
same,"ALSFRS-R score, result in words","over 12 weeks, ALS patients",stable and improved ALSFRS-R score in some patients

# Source: patent publication US20260240812A1, “TREATMENT FOR AMYOTROPHIC LATERAL SCLEROSIS (ALS)” (Zydus Lifesciences Limited, priority 2023, published 2026)
